These results are taken from patent US10370343B2, “[6,6] Fused bicyclic HDAC8 inhibitors” (FORMA Therapeutics, Inc., priority 2015, dated 2019).

For this experiment, the target named is T1, Full length human recombinant HDAC8 protein (Homo sapiens, UniProt Q9BY41).
T1 construct: Full length human recombinant HDAC8 protein was expressed in baculoviral system; made in house
T1 sequence (Q9BY41 1-377): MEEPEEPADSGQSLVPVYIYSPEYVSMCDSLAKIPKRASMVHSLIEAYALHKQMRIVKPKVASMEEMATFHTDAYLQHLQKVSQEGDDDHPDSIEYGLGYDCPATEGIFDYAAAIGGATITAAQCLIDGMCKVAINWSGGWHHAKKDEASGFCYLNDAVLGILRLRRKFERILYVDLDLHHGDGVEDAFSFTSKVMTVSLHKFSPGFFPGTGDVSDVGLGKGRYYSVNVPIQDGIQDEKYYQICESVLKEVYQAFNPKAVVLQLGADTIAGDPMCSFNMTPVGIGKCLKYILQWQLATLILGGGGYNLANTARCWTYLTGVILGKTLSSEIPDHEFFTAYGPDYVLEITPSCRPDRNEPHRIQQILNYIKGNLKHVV
Put plainly: In vitro histone deacetylase assay: enzymatic HDAC8 electrophoretic mobility shift assay. The experiment is classed as biochemical. The note with it: electrophoretic mobility shift assay; enzyme 1 nM; 2 μM fluorescently labeled peptide substrate RHKK(Ac)-NH2; 25° C.; 12 concentrations; read-out: HDAC8 IC50. How it is done: The enzymatic HDAC8 assay was performed using electrophoretic mobility shift assay. Full length human recombinant HDAC8 protein was expressed in baculoviral system and purified by affinity chromatography. The enzymatic reactions were assembled in 384 well plates in a total volume of 25 μL in a reaction buffer composing: 100 mM HEPES, pH7.5, 25 mM KCl, 0.1% bovine serum albumin, 0.01% Triton X-100, 1% DMSO (from compounds) 2 μM of the fluorescently labeled peptide substrate and enzyme. The enzyme was added at a final concentration of 1 nM. The peptide substrate RHKK(Ac)—NH2 was used. The compounds were tested at 12 concentrations spaced by 3× dilution intervals. Negative control samples (0%-inhibition in the absence of inhibitor) and positive control samples (100%-inhibition) were assembled in replicates of four in each assay plate. The reactions were incubated at 25° C. and quenched by the addition of 45 μL of termination buffer (100 mM HEPES, pH 7.5, 0.01% Triton X-100, 0.05% SDS).
The terminated assay plates were analyzed on LabChip® 3000 microfluidic electrophoresis instrument (Perkin Elmer/Caliper Life Sciences). The fluorescence intensity of the electrophoretically separated de-acetylated product and substrate peptide was measured. Activity in each sample was determined as the product to sum ratio (PSR): P/(S+P), where P is the peak height of the product peptide and S is the peak height of the substrate peptide. Percent inhibition (Pinh) is determined using the following equation: Pinh=(PSR0%−PSRinh)/(PSR0%−PSR100%)*100, where PSRinh is the product sum ratio in the presence of inhibitor, PSR0% is the average product sum ration in the absence of inhibitor and PSR100% is the average product sum ratio in 100%-inhibition control samples. The IC50 values of inhibitors were determined by fitting the %-inhibition curves with 4 parameter dose-response model using XLfit 4 software.

Bounds are passed on as bounds.

With `O=C(NO)c1ccc2c(c1)OC(C(=O)N1CC3(CC3)c3ccccc31)CN2Cc1ccccc1` (stereo not shown) [Compound I-10, 4-benzyl-N-hydroxy-2-(spiro[cyclopropane-1,3′-indoline]-1′-carbonyl)-3,4-dihydro-2H-benzo[b][1,4]oxazine-7-carboxamide], the 50% inhibitory concentration (IC50) fell in the range of 25 to 100 nM.
With `CN1CC(C(=O)NCc2ccccc2)Oc2cc(C(=O)NO)ccc21` (stereo not shown) [Compound I-11, N^2-benzyl-N^7-hydroxy-4-methyl-3,4-dihydro-2H-benzo[b][1,4]oxazine-2,7-dicarboxamide], the 50% inhibitory concentration (IC50) lay in the range of 25 to 100 nM.
Consider `O=C(NO)c1ccc2c(c1)OC(C(=O)NCc1ccccc1)CN2Cc1ccccc1` (stereo not shown) [Compound I-12, N^2,4-dibenzyl-N^7-hydroxy-3,4-dihydro-2H-benzo[b][1,4]oxazine-2,7-dicarboxamide], for which the concentration for half-maximal inhibition (IC50) lay within 100 to 1000 nM.
On to `COCCn1c(N2CCCc3c(C(=O)NO)cccc32)nc2ccccc21` [Compound I-13, N-hydroxy-1-(1-(2-methoxyethyl)-1H-benzo[d]imidazol-2-yl)-1,2,3,4-tetrahydroquinoline-5-carboxamide], for which the IC50 was above 1000 nM.
For `O=C(NO)c1cccc2c1CCCN2c1nc2ccccc2[nH]1` [Compound I-14, 1-(1H-1,3-benzodiazol-2-yl)-N-hydroxy-1,2,3,4-tetrahydroquinoline-5-carboxamide], the IC50 was above 1000 nM.
On to `O=C(NO)c1ccc2c(c1)N(Cc1cccc(S(=O)(=O)C(F)(F)F)c1)CCS2(=O)=O` [Compound I-15, N-hydroxy-4-(3-((trifluoromethyl)sulfonyl)benzyl)-3,4-dihydro-2H-benzo[b][1,4]thiazine-6-carboxamide-1,1-dioxide], for which the IC50 was below 25 nM.
For `CC(c1ccc(S(C)(=O)=O)cc1)N1CCS(=O)(=O)c2ccc(C(=O)NO)cc21` (stereo not shown) [Compound I-16, N-hydroxy-4-(1-(4-(methylsulfonyl)phenyl)ethyl)-3,4-dihydro-2H-benzo[b][1,4]thiazine-6-carboxamide-1,1-dioxide] the value was below 25 nM.
As for `O=C(NO)c1ccc2c(c1)N(Cc1ccc(S(=O)(=O)C(F)(F)F)cc1)C(=O)CO2` [Compound I-17, N-hydroxy-3-oxo-4-(4-((trifluoromethyl)sulfonyl)benzyl)-3,4-dihydro-2H-benzo[b][1,4]oxazine-6-carboxamide], the figure is below 25 nM; as for `O=C(NO)c1ccc2c(c1)N(Cc1cccc(S(=O)(=O)C(F)(F)F)c1)C(=O)CO2` [Compound I-18, N-hydroxy-3-oxo-4-(3-((trifluoromethyl)sulfonyl)benzyl)-3,4-dihydro-2H-benzo[b][1,4]oxazine-6-carboxamide], 100 to 1000 nM; as for `O=C(NO)c1ccc2c(c1)N(Cc1ccc(OC(F)(F)F)cc1)CCO2` [Compound I-19, N-hydroxy-4-(4-(trifluoromethoxy)benzyl)-3,4-dihydro-2H-benzo[b][1,4]oxazine-6-carboxamide], 25 to 100 nM.
As to `O=C(NO)c1ccc2c(c1)N(Cc1cn3ccsc3n1)CCO2` [Compound I-21, N-hydroxy-4-(imidazo[2,1-b]thiazol-6-ylmethyl)-3,4-dihydro-2H-benzo[b][1,4]oxazine-6-carboxamide], the 50% inhibitory concentration (IC50) was in the range of 100 to 1000 nM.
For the compound `C=C(C)CN1CCOc2ccc(C(=O)NO)cc21` [Compound I-22, N-hydroxy-4-(2-methylallyl)-3,4-dihydro-2H-benzo[b][1,4]oxazine-6-carboxamide], the half-maximal inhibitory concentration (IC50) lay within 100 to 1000 nM.
For `O=C(NO)c1ccc2c(c1)N(Cc1c(Cl)cccc1Cl)CCO2` [Compound I-23, 4-(2,6-dichlorobenzyl)-N-hydroxy-3,4-dihydro-2H-benzo[b][1,4]oxazine-6-carboxamide], the half-maximal inhibitory concentration (IC50) lay within 100 to 1000 nM.
As for `O=C(NO)c1ccc2c(c1)N(Cc1cccc(F)c1)CCO2` [Compound I-24, 4-(3-fluorobenzyl)-N-hydroxy-3,4-dihydro-2H-benzo[b][1,4]oxazine-6-carboxamide], the figure is below 25 nM; as for `O=C(NO)c1ccc2c(c1)N(Cc1ccccc1OC(F)(F)F)CCO2` [Compound I-25, N-hydroxy-4-(2-(trifluoromethoxy)benzyl)-3,4-dihydro-2H-benzo[b][1,4]oxazine-6-carboxamide], 100 to 1000 nM.
Turning to `O=C(NO)c1ccc2c(c1)N(CC(=O)N1CCOCC1)CCO2` [Compound I-26, N-hydroxy-4-(2-morpholino-2-oxoethyl)-3,4-dihydro-2H-benzo[b][1,4]oxazine-6-carboxamide], the IC50 was above 1000 nM.
Take `CC(C)n1c(CN2CCOc3ccc(C(=O)NO)cc32)nc2ccccc21` [Compound I-28, N-hydroxy-4-((1-isopropyl-1H-benzo[d]imidazol-2-yl)methyl)-3,4-dihydro-2H-benzo[b][1,4]oxazine-6-carboxamide]: the concentration for half-maximal inhibition (IC50) is above 1000 nM.
As for `COCCn1c(CN2CCOc3ccc(C(=O)NO)cc32)nc2ccccc21` [Compound I-29, N-hydroxy-4-((1-(2-methoxyethyl)-1H-benzo[d]imidazol-2-yl)methyl)-3,4-dihydro-2H-benzo[b][1,4]oxazine-6-carboxamide], the IC50 was 100 to 1000 nM.
`O=C(NO)c1ccc2c(c1)N(Cc1nc3ccccc3n1CC1CC1)CCO2` [Compound I-30, 4-((1-(cyclopropylmethyl)-1H-benzo[d]imidazol-2-yl)methyl)-N-hydroxy-3,4-dihydro-2H-benzo[b][1,4]oxazine-6-carboxamide]: the concentration for half-maximal inhibition (IC50) fell in the range of 100 to 1000 nM.
For `O=C(NO)c1ccc2c(c1)N(Cc1ccccc1)C(=O)CO2` [Compound I-32, 4-benzyl-N-hydroxy-3-oxo-3,4-dihydro-2H-benzo[b][1,4]oxazine-6-carboxamide], the concentration for half-maximal inhibition (IC50) was in the range of 25 to 100 nM.
Regarding `O=C(NO)c1ccc2c(c1)N(CCc1ccc(Cl)cc1)C(=O)CO2` [Compound I-34, 4-(4-chlorophenethyl)-N-hydroxy-3-oxo-3,4-dihydro-2H-benzo[b][1,4]oxazine-6-carboxamide], the IC50 was 25 to 100 nM.
As to `O=C(NO)c1ccc2c(c1)N(Cc1ccc(C(F)(F)F)cc1)C(=O)CO2` [Compound I-35, N-hydroxy-3-oxo-4-(4-(trifluoromethyl)benzyl)-3,4-dihydro-2H-benzo[b][1,4]oxazine-6-carboxamide], the IC50 is below 25 nM.
As for `CCCN1C(=O)COc2ccc(C(=O)NO)cc21` [Compound I-39, N-hydroxy-3-oxo-4-propyl-3,4-dihydro-2H-benzo[b][1,4]oxazine-6-carboxamide], the figure is 100 to 1000 nM.
For `C#CCN1C(=O)COc2ccc(C(=O)NO)cc21` [Compound I-40, N-hydroxy-3-oxo-4-(prop-2-yn-1-yl)-3,4-dihydro-2H-benzo[b][1,4]oxazine-6-carboxamide] the value was 100 to 1000 nM.
For `C=CCN1C(=O)COc2ccc(C(=O)NO)cc21` [Compound I-41, 4-allyl-N-hydroxy-3-oxo-3,4-dihydro-2H-benzo[b][1,4]oxazine-6-carboxamide] the value was 100 to 1000 nM.
Consider `O=C(NO)c1ccc2c(c1)N(C1CCCC1)C(=O)CO2` [Compound I-42, 4-cyclopentyl-N-hydroxy-3-oxo-3,4-dihydro-2H-benzo[b][1,4]oxazine-6-carboxamide], for which the IC50 fell in the range of 100 to 1000 nM.
Turning to `COCCN1C(=O)COc2ccc(C(=O)NO)cc21` [Compound I-43, N-hydroxy-4-(2-methoxyethyl)-3-oxo-3,4-dihydro-2H-benzo[b][1,4]oxazine-6-carboxamide], the IC50 lay within 100 to 1000 nM.
As for `CC(C)=CCCN1C(=O)COc2ccc(C(=O)NO)cc21` [Compound I-44, N-hydroxy-4-(4-methylpent-3-en-1-yl)-3-oxo-3,4-dihydro-2H-benzo[b][1,4]oxazine-6-carboxamide], the figure is 25 to 100 nM; as for `CCC(C)N1C(=O)COc2ccc(C(=O)NO)cc21` (stereo not shown) [Compound I-46, 4-(sec-butyl)-N-hydroxy-3-oxo-3,4-dihydro-2H-benzo[b][1,4]oxazine-6-carboxamide], 100 to 1000 nM; as for `O=C(NO)c1ccc2c(c1)N(CC1CCOCC1)C(=O)CO2` [Compound I-48, N-hydroxy-3-oxo-4-((tetrahydro-2H-pyran-4-yl)methyl)-3,4-dihydro-2H-benzo[b][1,4]oxazine-6-carboxamide], 100 to 1000 nM.
For `O=C(NO)c1ccc2c(c1)N(CC1CCS(=O)(=O)CC1)C(=O)CO2` [Compound I-49, 4-((1,1-dioxidotetrahydro-2H-thiopyran-4-yl)methyl)-N-hydroxy-3-oxo-3,4-dihydro-2H-benzo[b][1,4]oxazine-6-carboxamide] the value was 100 to 1000 nM.
